pIC50: −log10 of the molar value.
Columns and labels:
MRGPRX2 [1] = target: T1, MRGPRX2 (Homo sapiens, UniProt Q96LB1); assay: MRGPRX2 IP1 HTRF assay; assay type: cell-based; design: host or cells: CHO-K1; conditions: CHO-K1 cells stably expressing human MRGPRX2; IP1 accumulation; agonist Cortistatin 14 1 μM
T1 sequence (Q96LB1 1-330): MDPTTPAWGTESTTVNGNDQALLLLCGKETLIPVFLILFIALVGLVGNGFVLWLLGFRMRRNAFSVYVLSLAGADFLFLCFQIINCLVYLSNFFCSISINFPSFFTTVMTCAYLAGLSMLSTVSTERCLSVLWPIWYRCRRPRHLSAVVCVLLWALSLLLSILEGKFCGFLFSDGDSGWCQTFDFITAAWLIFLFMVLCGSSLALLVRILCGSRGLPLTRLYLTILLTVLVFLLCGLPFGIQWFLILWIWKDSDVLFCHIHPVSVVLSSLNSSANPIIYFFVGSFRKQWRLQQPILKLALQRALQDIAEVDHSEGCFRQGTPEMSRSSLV
Source text: Example B: MRGPRX2 IP1 HTRF Assay
This assay measures compound inhibition of myo-Inositol 1 phosphate (IP1) accumulation in CHO-K1 cells. Chinese hamster ovary (CHO-K1) cells stably expressing human MRGPRX2 were purchased from GenScript (Piscataway, NJ).
For the HTRF IP1 determination, an IP-One GqKit (Perkin Elmer Cisbio, Waltham, MA), which includes all reagents and buffers in this protocol, was used. The cells were maintained in culture medium (Ham's F-12K) containing 10% (v/v) FBS, and 200 μg/mL Zeocin. For the assay, the cells were harvested and resuspended in culture medium with 2% FBS and without Zeocin, then were passed through a 40 μm filter. Cells were added at 20000 cells in a 5 μL/well to a 384-well white small volume cell culture plate (Greiner VWR, Radnor, PA) which contained 50 nL/well of test compound serially diluted at a selected concentration range in DMSO. 5 μL/well of prepared 2× Stimulation Buffer2 was then added to plates and was incubated at 37° C. with 5% CO2 for 1 h. 5 μL/well of agonist Cortistatin 14 (Bio-TechneR&D Systems, Minneapolis, MN) in 1× Stimulation Buffer2, for a 1 μM final concentration, was then added to plates and incubated at 37° C. with 5% CO2 for 1 h. 6 μL/well of 1:20 diluted Detection Reagent Mix (d2 and Cryptate) was added to the plates and incubated for 1 h in the dark. Plates were read on the PHERAstar microplate reader (BMG Labtech Cary, NC) to determine the HTRF ratio of the acceptor and donor emission signals. The IP1 concentrations were calculated from a standard curve following the IP-One GQ kit instructions. Wells with DMSO only and wells with high concentration of reference antagonist were used as controls for normalization. Compound IC50 curves were globally fitted with 3- or 4-parameter Hill equation in a Genedata Screener (Genedata Basel, Switzerland).

MRGPRX2 [2] = target: T1, MRGPRX2; assay: MRGPRX2 β-Arrestin recruitment assay (PathHunter); assay type: cell-based; design: host or cells: CHO-K1 (PathHunter); conditions: PathHunter CHO-K1 MRGPRX2 β-Arrestin cell line; agonist Cortistatin 14 0.25 μM
Source text: Example C: MRGPRX2 P-Arrestin Assay
This assay measures compound inhibition of P-Arrestin recruitment, which is part of the G protein-independent pathway that results from the ligand-activated GPCR phosphorylation by specific GPCR kinases. The PathHunter CHO-K1 MRPGRX2 B-Arrestin Cell line stably expressing ProLink tagged MRGPRX2 and Enzyme Acceptor Tagged B-Arrestin was purchased from Eurofins DiscoverX, (Fremont, CA).
The cells were maintained in culture medium from the Europhins DiscoverX Cell Culture Kit-107 which includes FBS, hygromycin B and G418. For the assay, the cells were harvested and were resuspended with Cell Plating Reagent 2 (Eurofins DiscoverX). Cells were added 10000 cells in 25 μL/well to a 384-well black cell culture plate (Greiner VWR, Radnor, PA) which contained 125 nL/well of compound at a selected serially diluted concentration range or DMSO. The plate was incubated at 37° C. with 5% CO2 for 1 h. 2 μL/well of agonist Cortistatin 14 was diluted in Protein Dilution Buffer, (Eurofins DiscoverX) for a final concentration of 0.25 μM, was added and the plate was incubated at 37° C. with 5% CO2 for 90 min. 14 μL/well of Detection Reagent Mix (PathHunter Detection Kit, Eurofins DiscoverX) was added to the plates and further incubated for 1 h in the dark. Plates were read on the PHERAstar microplate reader (BMG Labtech Cary, NC) measuring luminescence 0.1 to 1 second per well. Data was normalized using DMSO only wells and wells with high concentration of reference antagonist as controls. Compound IC50 curves were globally fitted with 3- or 4-parameter Hill equation in a Genedata Screener (Genedata Basel, Switzerland).

pIC50 (MRGPRX2 [1])	pIC50 (MRGPRX2 [2])	SMILES
7.00 to 10.00	7.00 to 10.00	O=C(N[C@H]1CC[C@H](O)CC1)N1CC(CNc2cc(C(F)(F)F)nc3cc(C(F)F)nn23)(c2ccc(F)cc2)C1 [Example 98, 3-(((2-(Difluoromethyl)-5-(trifluoromethyl)pyrazolo[1,5-a]pyrimidin-7-yl)amino)methyl)-3-(4-fluorophenyl)-N-((1r,4r)-4-hydroxycyclohexyl)azetidine-1-carboxamide]
7.00 to 10.00	7.00 to 10.00	O=C(N[C@H]1CC[C@H](O)CC1)N1CC(CNc2cc(C(F)(F)F)nc3cc(C(F)(F)F)nn23)(c2ccc(F)c(F)c2)C1 [Example 100, 3-(((2,5-Bis(trifluoromethyl)pyrazolo[1,5-a]pyrimidin-7-yl)amino)methyl)-3-(3,4-difluorophenyl)-N-((1r,4r)-4-hydroxycyclohexyl)azetidine-1-carboxamide]
7.00 to 10.00	7.00 to 10.00	O=C(N[C@H]1CC[C@H](O)CC1)N1CC(CNc2cccc3nc(C(F)(F)F)cn23)(c2ccc(F)cc2)C1 [Example 102, 3-(4-Fluorophenyl)-N-((1r,4r)-4-hydroxycyclohexyl)-3-(((2-(trifluoromethyl)imidazo[1,2-a]pyridin-5-yl)amino)methyl)azetidine-1-carboxamide]
7.00 to 10.00	7.00 to 10.00	[2H]C([2H])([2H])C([2H])([2H])c1cc(NCC2(c3ccc(F)cc3)CN(C(N)=O)C2)n2nc(C(F)(F)F)cc2n1 [Example 111, 3-(((5-(Ethyl-d5)-2-(trifluoromethyl)pyrazolo[1,5-a]pyrimidin-7-yl)amino)methyl)-3-(4-fluorophenyl)azetidine-1-carboxamide]
7.00 to 10.00	7.00 to 10.00	[2H]C([2H])([2H])C([2H])([2H])c1cc(NCC2(c3ccc(F)cc3)CN(C(=O)N[C@H]3CC[C@H](O)CC3)C2)n2nc(C(F)(F)F)cc2n1 [Example 112, 3-(((5-(Ethyl-d5)-2-(trifluoromethyl)pyrazolo[1,5-a]pyrimidin-7-yl)amino)methyl)-3-(4-fluorophenyl)-N-((1r,4r)-4-hydroxycyclohexyl)azetidine-1-carboxamide]
7.00 to 10.00	7.00 to 10.00	[2H]C([2H])([2H])C([2H])([2H])c1cc(NCC2(c3ccc(F)cc3)CN(C(=O)N[C@@H]3CC[C@@H](O)C3)C2)n2nc(C(F)(F)F)cc2n1 [Example 113, 3-(((5-(Ethyl-d5)-2-(trifluoromethyl)pyrazolo[1,5-a]pyrimidin-7-yl)amino)methyl)-3-(4-fluorophenyl)-N-((1R,3R)-3-hydroxycyclopentyl)azetidine-1-carboxamide]

Second part, the compound before the results:

SMILES	pIC50 (MRGPRX2 [1])	pIC50 (MRGPRX2 [2])
C[C@]1(O)C[C@H](NC(=O)N2CC(CNc3cc(C(F)(F)F)nc4cc(C(F)(F)F)nn34)(c3ccc(F)cc3)C2)C1 [Example 91, 3-(((2,5-Bis(trifluoromethyl)pyrazolo[1,5-a]pyrimidin-7-yl)amino)methyl)-3-(4-fluorophenyl)-N-((1r,3r)-3-hydroxy-3-methylcyclobutyl)azetidine-1-carboxamide]	7.00 to 10.00	7.00 to 10.00
O=C(NC[C@H]1C[C@H](O)C1)N1CC(CNc2cc(C(F)(F)F)nc3cc(C(F)(F)F)nn23)(c2ccc(F)cc2)C1 [Example 92, 3-(((2,5-Bis(trifluoromethyl)pyrazolo[1,5-a]pyrimidin-7-yl)amino)methyl)-3-(4-fluorophenyl)-N-(((1r,3r)-3-hydroxycyclobutyl)methyl)azetidine-1-carboxamide]	7.00 to 10.00	7.00 to 10.00
O=C(N[C@H]1CC[C@@H]1O)N1CC(CNc2cc(C(F)(F)F)nc3cc(C(F)(F)F)nn23)(c2ccc(F)cc2)C1 [Example 93, 3-(((2,5-Bis(trifluoromethyl)pyrazolo[1,5-a]pyrimidin-7-yl)amino)methyl)-3-(4-fluorophenyl)-N-((1S,2S)-2-hydroxycyclobutyl)azetidine-1-carboxamide]	7.00 to 10.00	7.00 to 10.00
O=C(N[C@H]1CC[C@H](O)CC1)N1CC(CNc2cc(C(F)(F)F)nc3cc(C(F)(F)F)nn23)(c2ccc(F)cn2)C1 [Example 99, 3-(((2,5-Bis(trifluoromethyl)pyrazolo[1,5-a]pyrimidin-7-yl)amino)methyl)-3-(5-fluoropyridin-2-yl)-N-((1r,4r)-4-hydroxycyclohexyl)azetidine-1-carboxamide]	7.00 to 10.00	7.00 to 10.00
[2H]C([2H])([2H])NC(=O)N1CC(CNc2cccc3nc(C(F)(F)F)cn23)(c2ccc(F)cc2)C1 [Example 101, 3-(4-Fluorophenyl)-N-(methyl-d3)-3-(((2-(trifluoromethyl)imidazo[1,2-a]pyridin-5-yl)amino)methyl)azetidine-1-carboxamide]	7.00 to 10.00	7.00 to 10.00
[2H]C([2H])([2H])NC(=O)N1CC(CNc2cccc3nc(C(F)(F)F)nn23)(c2ccc(F)cc2)C1 [Example 103, 3-(4-Fluorophenyl)-N-(methyl-d3)-3-(((2-(trifluoromethyl)-[1,2,4]triazolo[1,5-a]pyridin-5-yl)amino)methyl)azetidine-1-carboxamide]	7.00 to 10.00	7.00 to 10.00
[2H]C([2H])([2H])c1cc(NCC2(c3ccc(F)cc3)CN(C(=O)NCC(F)(F)F)C2)n2nc(C(F)(F)F)cc2n1 [Example 109, 3-(4-Fluorophenyl)-3-(((5-(methyl-d3)-2-(trifluoromethyl)pyrazolo[1,5-a]pyrimidin-7-yl)amino)methyl)-N-(2,2,2-trifluoroethyl)azetidine-1-carboxamide]	7.00 to 10.00	7.00 to 10.00
[2H]C([2H])([2H])c1cc(NCC2(c3ccc(F)cc3)CN(C(=O)NCC(F)F)C2)n2nc(C(F)(F)F)cc2n1 [Example 110, N-(2,2-Difluoroethyl)-3-(4-fluorophenyl)-3-(((5-(methyl-d3)-2-(trifluoromethyl)pyrazolo[1,5-a]pyrimidin-7-yl)amino)methyl)azetidine-1-carboxamide]	7.00 to 10.00	7.00 to 10.00
